From patent US9820957B2, “Methods of treating autoimmunity” (IM Therapeutics, Inc., priority 2016, dated 2017)

Experiments:
[1] = system: HLA-DQ8 antigen presenting cells with gliadin-responsive CD4 T cell receptor (TCR) transductant; assay: Inhibition of DQ8 antigen presentation in vitro, gliadin-responsive TCR transductant, IL-2 ELISA; type: cell-based; settings: for inhibition of gliadin-responsive TCR transductant (secreted IL-2): 4 hours with peptide and compound, then overnight with transductant; for IC50 compared between the enantiomers: gliadin-responsive TCR transductant
Protocol: (§1) Inhibition of DQ8 antigen presentation by the D- and L-enantiomers of α-methyldopa was tested and compared in vitro. HLA-DQ8 antigen presenting cells were cultured with a fixed concentration of peptide and a concentration of D- or L-α-methyldopa for 4 hours. TCR transductants were then added to each culture condition and cultured overnight. Secreted IL-2 from the TCR transductant was measured by ELISA for each condition.
(§2) In these figures, 0 represents the TCR transductant response to peptide without the addition of α-methyldopa. No antigen IL-2 responses (negative control) were very low at <2 pg/ml. Results are presented as mean+/− SEM.

[2] = system: HLA-DQ8 antigen presenting cells with insulin responsive CD4 T cell receptor (TCR) transductant; assay: Inhibition of DQ8 antigen presentation in vitro, insulin responsive TCR transductant, IL-2 ELISA; type: cell-based; settings: for inhibition of insulin responsive TCR transductant (secreted IL-2): 4 hours with peptide and compound, then overnight with transductant; for IC50 compared between the enantiomers: insulin responsive TCR transductant
Protocol: as §1, §2

DQ8-restricted T cell = assay: Pharmacodynamics in DQ8 transgenic mice: ex vivo splenocytes stimulating a DQ8-restricted T cell to deamidated gliadin peptide; settings: 4 mg by oral gavage daily for 5 days
Excerpt: Ex vivo splenocytes were used to stimulate a DQ8-restricted T cell to a deamidated gliadin peptide.

[3] = cited from earlier work; for decarboxylation to α-methyl-dopamine in patients: Sjoerdsma et al. 1963, urine of treated patients
[4] = Oral pharmacokinetics in HLA-DQ8 transgenic mice, plasma by HPLC-MS; type: in vivo; settings: oral gavage, 4 mg
Protocol: Separate cohorts of HLA-DQ8 transgenic mice (n=2) were gavaged with a specific dose of L- and D-α-methyldopa, followed by the collection of plasma 90 minutes later. […] Similarly, separate cohorts of mice (n=3) were gavaged with a specific enantiomer (D or L enantiomer) and dose (4 mg by gavage) of α-methyldopa followed by the collection of plasma at baseline, 1, 2, 4, 6, and 18 hours later. […] In these PK studies the Lower Limit of Quantification (LLOQ) was <2.5 ng/ml. Results are presented as mean+/− SEM.

IC50 compared between the enantiomers [1] | IC50 compared between the enantiomers [2] | time to maximum plasma concentration (Tmax) compared with the other enantiomer [4] | SMILES | inhibition of gliadin-responsive TCR transductant (secreted IL-2) [1] | inhibition of insulin responsive TCR transductant (secreted IL-2) [2] | inhibition of the DQ8-restricted T cell response to deamidated gliadin peptide (DQ8-restricted T cell) | response to positive control stimulus (anti-CD3) (DQ8-restricted T cell) | absorption in humans compared with the other isomer ([3]; Au et al. 1972) | decarboxylation to α-methyl-dopamine in patients [3] | pharmacologic activity ([3]; prior art view, Du et al., Gillespie et al. 1962)
statistically similar IC50 values | statistically similar IC50 values |  | C[C@@](N)(Cc1ccc(O)c(O)c1)C(=O)O [D-α-methyldopa, D-α-Methyl-3,4-dihydroxyphenylalanine] | blocked in a dose-dependent manner | blocked in a dose-dependent manner | inhibition of the T cell response is observed | not different between the groups | much less readily absorbed | did not decarboxylate | no pharmacologic activity
statistically similar IC50 values | statistically similar IC50 values | slightly slower | C[C@](N)(Cc1ccc(O)c(O)c1)C(=O)O [L-α-methyldopa, L-α-Methyl-3,4-dihydroxyphenylalanine, reference compound] | blocked in a dose-dependent manner | blocked in a dose-dependent manner | only for the D enantiomer | not different between the groups |  | α-methyl-dopamine did appear in the urine | 
